Non-standard residues stand in square brackets, D forms with d. Residues, ends and D or L forms follow the SMILES beside them. N(1-naphthylmethyl)Gly = O=C(O)CNCc1cccc2ccccc12; d1Nal = N[C@H](Cc1cccc2ccccc12)C(=O)O; N(4-MeBn)Gly = Cc1ccc(CNCC(=O)O)cc1; dNle = CCCC[C@@H](N)C(=O)O; NBuGly = CCCCNCC(=O)O; Nlys = NCCCCNCC(=O)O
Assays:
[1] = system: clinical MRSP strain C22963; experiment: Time–kill kinetics; assay type: cell-based, Staphylococcus pseudintermedius; conditions: for log reduction in time–kill: after 6 h, MRSP C22963, 10^5 CFU/mL in MHB
Description: The time–kill experiments of D2 against the methicillin-resistant S. pseudintermedius strain C22963 were performed using an in-house protocol adopted and modified from Blondeau et al.: the bacterium was grown overnight on a blood agar plate. The next day, an inoculum was transferred to MHB and incubated for 2 h at 37 °C to reach exponential growth phase. […] Aliquots were removed at 1 h intervals up to 6h and spotted in triplicate on blood agar plates, and incubated overnight at 37 °C. Colonies were counted and CFU per mL was calculated.

MRSP ST71 strain E104 = experiment: Growth curve analysis (BioScreen); assay type: cell-based, Staphylococcus pseudintermedius; conditions: at the MIC, MRSP E104, OD600, 6 h, 37 °C
Description: First, we performed growth curve analysis using the well-characterized MRSP ST71 strain E104, which is resistant to a number of antibiotics. […] A well-characterized antimicrobial peptide, nisin, was used as control. […] Increased concentrations of nisin inhibited proportionally the growth of E104, both at sub-MIC and MIC concentrations.
The effect of D2 or analogues or nisin on the growth of MRSP strain E104 was evaluated using BioScreen (Oy Growth Curves Ab LTd, Helsinki, Finland). Freshly grown culture of E104 was diluted to OD 0.2 at 600 nm, supplemented with increased concentration of antimicrobials and distributed in a 100 well honeycomb micro-plate with volume 100 μL. The plate was incubated for 6 h at 37 °C with continuous shaking. The OD600 of each micro-culture was measured and recorded every 15 min after a 5 s pause of shaking in automatic mode. Recorded OD was plotted against time to prepare the growth curves. Experiment was performed twice and one representative result was presented.

[2] = system: membrane proton motive force of E104 cells; experiment: DiSC3(5) fluorescence, membrane depolarization; assay type: cell-based, Staphylococcus pseudintermedius; conditions: 0.5× MIC, n = 2
Text: In this study, the DiSC3(5) probe was used to assess the effect of D2 and its structural analogues D2L, D2D, and D2R on cytoplasmic membrane depolarization. DiSC3(5) is a cationic carbocyanine dye, which accumulates on negatively charged membrane, translocates into lipid membrane with a distribution dependent on plasma and mitochondrial membrane potential. Altered emission profile of DiSC3(5) measured via fluorescence spectroscopy indicates membrane depolarization caused by proton motive force dissipation, ATP production and/or pore formation. The increment of DiSC3(5) fluorescence of labeled cells resulting from its leakage upon addition of antimicrobial agents is usually measured over time. The protonophore carbonyl cyanide metachlorophenyl hydrazone (CCCP) is used as positive control, which rapidly dissipates PMF increasing proton permeability, alters both membrane proton gradient and transmembrane electric potential and decreases cellular ATP content. Based on the MIC and growth analysis results, sub-lethal concentrations of D2 and selected analogues were chosen to perform DiSC3(5) fluorescence and macromolecule biosynthesis studies.
Freshly grown E104 cells with OD 0.2 at 600 nm were labeled with 1 µM 3,3-dipropylthiadicarbocyanine iodide [DiSC3(5)] (Sigma-Aldrich, Søborg, Denmark) in MHB. The fluorescence spectra of fluorophore-labeled cells were plotted using the LS-50B luminescence spectrometer (PerkinElmer, Waltham, MA, USA) at excitation/emission wavelengths 546 nm/573 nm using time drive application of FLWINLAB software. After reading initial stable emission spectra of DiSC3(5), labeled cells were exposed with D2 or analogues or nisin or protonophore CCCP by directly injecting the concentrated solution of agent to the cuvette, and the change of fluorescence over time was recorded until emission spectra reached to stability. The increment of DiSC3(5) fluorescence upon addition of antimicrobials or CCCP (FUafter-exposure – FUbefore-exposure) was calculated and plotted in addition to raw fluorescence spectra. Experiment was performed twice and average fluorescence change was plotted with standard deviation.

red blood cell (RBC) = conditions: 0.5% RBC suspension in PBS, 1 h, 37 °C, read at 414 nm, normalized to mellitin and PBS, triplicates
Description: Briefly, 75 µL of peptide in PBS was mixed with 75 µL of a 0.5% red blood cell (RBC) suspension in PBS, and incubated for 1 h at 37 °C. The hemoglobin release was then measured at 414 nm and normalized, using mellitin as positive control and PBS as negative control. Experiments were done in triplicates.

[3] = system: P. aeruginosa isolates from canine infections; assay type: cell-based, Pseudomonas aeruginosa
Description: (§1) To explore the antimicrobial activity of the library of peptides and peptidomimetics, they were tested against Acinetobacter baumannii, Corynebacterium auriscanis, Escherichia coli, Enterococcus faecalis, Enterococcus faecium, Klebsiella pneumonia, Proteus mirabilis, and Pseudomonas aeruginosa. Bacteria grown on agar plates for 18 h at 37 °C were diluted to ~1 × 10^8 CFU/mL in Mueller–Hinton broth (MHB). Two-fold serial dilutions of peptides and peptidomimetics in MHB II were inoculated with bacteria to achieve a final concentration of 5 × 10^5 CFU/mL in polypropylene 96 U-well microtiter plates (Almeco, Esbjerg, Denmark), followed by incubation at 37 °C in ambient air for 18 h. The MIC values were determined as the lowest concentration showing no visible bacterial growth. Experiments were performed twice (in technical triplicates) on two different days.

[4] = system: Methicillin sensitive Staphylococcus pseudintermedius (26916); assay type: cell-based; conditions: 18 h
[5] = system: other selected dog pathogens; experiment: MIC against other selected dog pathogens; assay type: cell-based; conditions: summary of Table 4, except for P. mirabilis
Text: We screened the antimicrobial activity of D2 and the analogue D2D against a number of canine pathogens (Table 4). These included Acinetobacter baumannii, Escherichia coli, Enterococcus faecalis, and Klebsiella pneumoniae isolated from wounds, Corynebacterium auriscanis associated with canine otitis externa, the nosocomial pathogen Enterococcus faecium, the endocartitis-causing Streptococcus canis, and Proteus mirabilis
as §1

[6] = system: S. pseudintermedius isolates from canine infections; assay type: cell-based, Staphylococcus pseudintermedius; conditions: 50 isolates from canine infections
[7] = cited from earlier work
Text: We have previously described a promising antimicrobial peptoid, D2, which is active against MRSP and P. aeruginosa, resistant to plasma proteases and hepatic clearance in vitro, and is suitable for topical administration to treat superficial pyoderma. In the present study, we investigated the structural features responsible for antimicrobial activity of D2 by (a) performing Gly-scan to analyze the residues crucial for activity; (b) investigating the effects of single substitution in order to increase activity; (c) exploring the effect of the peptoid backbone by exchanging L- and D- amin ...

SMILES	time to killing to bacterial levels below the detection threshold ([1]; 1× MIC, MRSP C22963) [min]	growth curve, change of cell optical density over time (MRSP ST71 strain E104)	effect on PMF (membrane depolarization, DiSC3(5) fluorescence) [2]	HA, percentage of hemolysis at 150 µM (red blood cell (RBC)) [%]	MICs against canine P. aeruginosa isolates ([3]; isolates from canine infections, 18 h) [µg/mL]	MIC MSSP [4] [µg/mL]	MIC range against other selected dog pathogens [5] [µg/mL]	log reduction in time–kill ([1]; 1× MIC) [log]	log reduction in time–kill ([1]; 2× MIC) [log]	MIC range, panel of 50 S. pseudintermedius isolates [6] [µM]	MIC range, panel of 50 P. aeruginosa isolates ([3]; 50 isolates from canine infections) [µM]	resistance to hepatic clearance [7]	resistance to plasma proteases [7]
CCCC[C@@H](NC(=O)[C@@H](CCCCN)NC(=O)[C@@H](Cc1cccc2ccccc12)NC(=O)[C@@H](CCCCN)NC(=O)[C@@H](Cc1ccccc1)NC(=O)[C@@H](Cc1cccc2ccccc12)NC(=O)[C@@H](CCCCN)NC(=O)[C@H](N)CCCCN)C(N)=O [D2D] (H-[dK][dK][d1Nal][dF][dK][d1Nal][dK][dNle]-NH2)	30	cell lysis	lowest activity on PMF	35	4	1 to 4	2 to 16	–	–	–	–	–	–
CCCCN(CC(N)=O)C(=O)CN(CCCCN)C(=O)CN(Cc1cccc2ccccc12)C(=O)CN(CCCCN)C(=O)CN(Cc1ccc(C)cc1)C(=O)CN(Cc1cccc2ccccc12)C(=O)CN(CCCCN)C(=O)CNCCCCN [D2] (H-[Nlys][Nlys][N(1-naphthylmethyl)Gly][N(4-MeBn)Gly][Nlys][N(1-naphthylmethyl)Gly][Nlys][NBuGly]-NH2)	–	cell lysis	–	24	–	2 to 4	–	1.5	2.7	1.56 to 3.12	3.12 to 12.5	resistant	resistant

— publication PMC6470533, “Structure–Activity Study, Characterization, and Mechanism of Action of an Antimicrobial Peptoid D2 and Its D- and L-Peptide Analogues” (Molecules, 2019)
